PMC8750527 (Cancers, 2021)

Legend:
[1] = system: HD-MB03; assay: Cumulative population doubling (CPD), HD-MB03; format: cell-based, human; settings: continuous treatment; axitinib 5 µM, etoposide 1 µM
Protocol: (§1) Cumulative population doubling (CPD) was assessed as previously described. Briefly, depending on the cell line, a variable number of cells corresponding to about 30% confluency were seeded in triplicate in 60 mm diameter Petri dishes. […] The cells were harvested when the confluency reached about 90%, counted and plated again at a dilution of 1/20. CPD was calculated as previously described.

[2] = LC/MS measurement of axitinib in rat cerebellum; format: in vivo; settings: after 28 days of 50 mg/kg/day oral gavage
Text: (§2) The experiments were approved by Comité National Institutionnel d’Ethique pour l’Animal de Laboratoire (France). The rats were bled and the brains were recovered and flash-frozen at the end of the experiment.

[3] = system: barrier formed by BEC (hCMEC/D3); assay: In vitro BBB permeability assay (FITC-Dextran), BEC; format: cell-based, human; settings: 3-day treatment, nontoxic doses
Protocol: (§3) This assay was conducted as previously described. […] Permeability was measured by the passage of 40 kDa FITC-Dextran through the inserts. Fluorescence intensity measures were normalized to the DMSO control.

[4] = system: human brain endothelial cells (BEC, hCMEC/D3); assay: MTT assay, brain endothelial cells; format: cell-based; settings: after three days, 1, 5 and 25 µM tested
[5] = system: MB cells (DAOY, HD-MB03, D283, D458, CHLA-01-MED spheroids); assay: Spheroid assay, five MB cell lines; format: cell-based, human; settings: 5 µM, continuous treatment
Protocol: Two thousand cells were seeded in ultralow-adhesion 96-well plates (Corning Inc., Corning, NY, USA). […] Pictures were taken with an AMG Evos microscope 40× objective (Thermo Fisher Scientific Inc, Waltham, MA, USA) and the spheroid areas were measured using the ImageJ software (NIH, Bethesda, MD, USA).

[6] = system: C8-D1A; assay: Cumulative population doubling (CPD), C8-D1A; format: cell-based, murine
Protocol: as §1

[7] = system: normal cells (C8-D1A, HDF); assay: Proliferation index assay, normal cells; settings: 120 h; axitinib 5 µM, etoposide 1 µM
[8] = system: barrier formed by HUVEC; assay: In vitro endothelium permeability assay (FITC-Dextran), HUVEC; format: cell-based, human; settings: 3-day treatment, nontoxic doses
Protocol: as §3

[9] = system: 20-day-old Wistar rats; assay: Juvenile rat toxicity experiment; format: in vivo; settings: 50 mg/kg daily, oral gavage, four weeks; female and male
Text: as §2

[10] = system: group 3 (D283, D458 and HD-MB03) and putative Shh group (DAOY) MB cell lines; assay: MTT assay, mean IC50 over group 3 and Shh MB cell lines; format: cell-based; settings: Homo sapiens
Protocol: HDF (3000 cells), C8-D1A (5000 cells), D458 (5000 cells), DAOY (2000 cells), HD-MB03 (10,000 cells) and CHLA-01-Med (10,000 cells) were seeded at an approximate confluency of 50% in 96-well plates (Corning Inc., Corning, NY, USA) in 100 µL medium per well. A range from 50 nM to 150 µM of every drug was tested. The effects of the antiangiogenic compounds were measured using a 3-[4,5-dimethylthiazol-2yl]-diphenyltetrazolium bromide (MTT) colorimetric assay (Sigma, Lyon, France) according to the manufacturer’s instructions. When applicable, IC50 was calculated using the nonlinear regression method of the Prism 5 software (Graphpad Software Inc., San Diego, CA, USA). […] An MTT assay was conducted as described above to assess the fitness of the cells.

[11] = system: MB cells; assay: Proliferation index assay, MB cells; format: cell-based, human; settings: after 120 h; axitinib 5 µM, etoposide 1 µM
Protocol: DAOY, D458, D283, C8-D1A and HDF (30,000 cells per well) and HD-MB03 (50,000 cells per well) were seeded in 24-well plates for proliferation assays.

[12] = system: HDF; assay: Cumulative population doubling (CPD), HDF; format: cell-based, human; settings: transient treatment for 48 h, 5 µM
Protocol: as §1

[13] = system: DAOY; assay: Cumulative population doubling (CPD), DAOY; format: cell-based, human; settings: continuous treatment; axitinib 5 µM, etoposide 1 µM
Protocol: as §1

[14] = system: HD-MB03 intracranial tumors
Protocol: HD-MB03-Luc spheroids were stereotaxically implanted into the brains of 9-week-old Rj:NMRI-Foxn1 nude (nu/nu) female mice (Janvier Labs, Le Genest-Saint-Isle, France). Briefly, MB spheroids were generated with 2500 cells grown for 48 h in ultralow-adhesion spheroid 96-well plates (Corning, Corning, NY, USA) and three spheroids per mouse were implanted into the left cerebellar hemisphere (2 mm posterior, 1.5 mm left of the lambda point and 2.5 mm deep) using a Hamilton syringe fitted with a needle (Hamilton, Bonaduz, Switzerland) and following the procedure already described. […] Oral gavage with a vehicle solution was used as the control. Mouse survival was based on the presence of neuropathological symptoms including gait defects and a loss of weight over 10% as endpoints. A minimum of five mice per group was chosen to yield sufficient statistical power (p < 0.05, one-way ANOVA). These experiments were carried out in strict accordance with the recommendations in the Guide for the Care and Use of Laboratory Animals. Our experiments were approved by Direction de l’Action Sanitaire et Sociale of the Principality of Monaco and the ethics committee of Centre Scientifique de Monaco.
Tumor samples were recovered from the animals and embedded in the OCT compound according to the manufacturer’s protocol (Thermo Fisher Scientific Inc., Waltham, MA, USA). After that, 5 µm thin sections were prepared with a cryostat (Leica Microsystems, Wetzlar, Germany). Incubation was carried out with the following antibodies diluted at 1:1000 in TBS supplemented with 1% horse serum and 1% BSA for 20 min at room temperature: anti-Ki67 (cat. number ab16667, Abcam, Cambridge, UK), anti-CD31 (cat. number 550274, BD Biosciences, Frankton Lake, NJ, USA) or anti-αSMA (cat. number A2547, Merck Millipore, Burlington, MA, USA). The preparations were then washed with TBS–0.025% Triton, incubated with anti-rabbit Alexa488 and anti-mouse Alex-555-coupled secondary antibodies (Cell Signaling Technology, Danvers, MA, USA), washed with TBS–0.025% Triton, and the nuclei were counterstained with Hoechst33342 (Thermo Fisher Scientific, Waltham, MA, USA). Fluorescence images of the cells were taken with a DMI400 inverted microscope equipped with a 40× objective (Leica Microsystemes, Nanterre, France) and a Zyla 5.5 camera (Andor Technologies, Belfast, UK) powered by the Micromanager software. At least one cross-section of nonoverlapping images of each tumor was acquired. All the images were then quantified with the CellProfiler 3.0 software.

[15] = system: MB cells; assay: Cell viability, propidium iodine incorporation, MB cells; format: cell-based, human; settings: 48 h, 5 µM
Protocol: Cell viability assays were conducted using a propidium iodine incorporation technique with an ADAM-sHIT automated cell counter (NanoEnTek, Gyeonggi-do, Korea) according to the manufacturer’s protocol.

In the case of `CNC(=O)c1ccccc1Sc1ccc2c(/C=C/c3ccccn3)n[nH]c2c1` [Axitinib, axitinib], the “long-term proliferation (CPD) of HD-MB03 cells” value [1] is reported as “strongly impaired their proliferation”, the “axitinib content of cerebella (LC/MS)” value [2] is reported as “present in the cerebellum” and the “permeability of the barrier formed by BEC” value [3] is reported as “permeabilized the barrier”. The “doses displaying toxicity in brain endothelial cells” value [4] was “higher than 1 µM”, the “3D growth of MB cell spheroids” value [5] was “abolished 3D growth” and the “long-term proliferation (CPD) of C8-D1A cells” value ([6]; continuous treatment, 5 µM axitinib, compared to etoposide 1 µM) was “milder effect”. For the same compound, the “proliferation (CPD) of C8-D1A normal cells after removal of the drug” value ([6]; transient treatment for 48 h, 5 µM) was “able to proliferate again”, the “proliferation of normal cells” value [7] was “impaired in these conditions, although to a lower extent” and the “permeability of the barrier formed by HUVEC” value [8] was “permeabilized the barrier”. The “general behavior and growth rate of juvenile rats” value [9] was “no effect on the general behavior and growth rate”, the IC50 [10] was 1.1 ± 0.9 µM and the “reduction of proliferation of MB cells” value [11] was “more than 80%”. For the same compound, the “proliferation (CPD) of HDF normal cells after removal of the drug” value [12] was “able to proliferate again”, the “long-term proliferation (CPD) of DAOY cells” value [13] was “strongly impaired their proliferation” and the “number of CD31-positive and αSMA-positive double-stained structures (vessels covered with pericytes)” value ([14]; metronomic oral treatment) was “decreased the number”. For the same compound, the “intracranial tumor growth (BLI)” value ([14]; oral, five times a week, axitinib 50 mg/kg, combination 25 + 15 mg/kg) was “reduced tumor growth”, the “survival of mice with intracranial tumors” value ([14]; oral, five times a week, axitinib 50 mg/kg, etoposide 30 mg/kg, combination 25 + 15 mg/kg) was “increased survival of the animals” and the “viability of MB cells” value [15] was “decreased the viability of most MB cells”.
